In the experiment the target is T1, P2Y14 receptor (Homo sapiens, UniProt Q15391).
T1 construct: expressed in transfected cells; host or cells: HEK293
T1 sequence (Q15391 1-338): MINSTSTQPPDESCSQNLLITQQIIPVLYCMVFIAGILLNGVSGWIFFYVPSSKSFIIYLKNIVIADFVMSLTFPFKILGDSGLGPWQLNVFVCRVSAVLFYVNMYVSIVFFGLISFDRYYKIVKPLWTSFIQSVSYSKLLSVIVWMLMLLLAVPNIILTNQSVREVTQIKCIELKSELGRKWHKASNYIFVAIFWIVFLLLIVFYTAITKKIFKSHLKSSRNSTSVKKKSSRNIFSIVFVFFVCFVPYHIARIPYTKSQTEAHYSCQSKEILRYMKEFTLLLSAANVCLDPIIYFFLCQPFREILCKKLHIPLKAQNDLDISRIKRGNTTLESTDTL
As to the kind of experiment: cAMP inhibition assay in HEK293 cells stably transfected with the P2Y14 receptor (UDPG-stimulated, cAMP Glo). In kind it is cell-based. The procedure: An HEK293 cell strain stably transfected with the P2Y14 receptor was cultured in a DMEM culture medium (containing […], 100 U/mL penicillin, and 100 μg/mL streptomycin). Before the experiment, the cells were seeded into a culture plate at a density of 1×10^5 cells/well, and a serum-free culture medium was used instead. The cells were cultured at 37° C. with […] and 5% CO2 humidity. IBMX was added to inhibit the activity of PDEs, thereby ensuring a relatively high level of cAMP. The AC agonist Forskolin (30 μM) was adopted to stimulate the production of cellular cAMP. Test compounds at different concentrations (0.01 nm, 0.1 nm, 1 nm, 10 nm, and 100 nm) were added in advance, and PPTN was used as a positive control. Subsequently, 1 μM P2Y14 receptor agonist UDPG was added, and after 4 h, the content of intracellular cAMP was measured using a cAMP Glo™ Assay kit (PROMEGA Co. Ltd., USA). The inhibition rate was calculated based on the cAMP content.

Where [1] appears, read: 100 nM compound, HEK293 stably transfected with P2Y14 receptor, 30 μM Forskolin, 1 μM UDPG, 4 h, inhibition rate from cAMP content, read-out: Inhibition @ 100 nM.

The inhibition is the change of the read-out against control, counted positive when it falls.

Each structure is given as a SMILES string. Like-named read-outs stand apart in the source and are kept apart here.

Regarding `Cc1ccc(C(=O)Nc2cc(C(=O)O)sc2Oc2ccc(F)cc2)cc1` [Compound 2, 5-(4-fluorophenoxy)-4-(4-methylbenzamido)thiophene-2-carboxylic acid], the inhibition at 0.1 µM under setting [1] was 70.4%.
As for `Cc1ccc(C(=O)Nc2cc(C(=O)O)sc2Oc2ccccc2)cc1` [Compound 3-1], under setting [1], the inhibition at 0.1 µM is 44.1%.
For `Cc1ccc(C(=O)Nc2cc(C(=O)O)sc2Oc2cccc(F)c2)cc1` [Compound 3-2], the inhibition at 0.1 µM under setting [1] stood at 69.6%.
On to `Cc1ccc(C(=O)Nc2cc(C(=O)O)sc2Oc2ccccc2F)cc1` [Compound 3-3], for which the inhibition at 0.1 µM under setting [1] amounted to 66%.
As for `Cc1ccc(C(=O)Nc2cc(C(=O)O)sc2Oc2ccc(Cl)cc2)cc1` [Compound 3-4], the inhibition at 0.1 µM under setting [1] is 30.9%.
`Cc1ccc(C(=O)Nc2cc(C(=O)O)sc2Oc2cccc(Cl)c2)cc1` [Compound 3-5]: the inhibition at 0.1 µM under setting [1] turned out to be 36.2%.
Take `Cc1ccc(C(=O)Nc2cc(C(=O)O)sc2Oc2ccccc2Cl)cc1` [Compound 3-6]: under setting [1], the inhibition at 0.1 µM was 40.4%.
Take `Cc1ccc(C(=O)Nc2cc(C(=O)O)sc2Oc2ccc(C(F)(F)F)cc2)cc1` [Compound 3-7]: under setting [1], the inhibition at 0.1 µM was found to be 62.6%.
As to `Cc1ccc(C(=O)Nc2cc(C(=O)O)sc2Oc2cccc(C(F)(F)F)c2)cc1` [Compound 3-8], under setting [1], the inhibition at 0.1 µM came to 52.8%.
In the case of `Cc1ccc(C(=O)Nc2cc(C(=O)O)sc2Oc2ccccc2C(F)(F)F)cc1` [Compound 3-9], under setting [1], the inhibition at 0.1 µM amounted to 57.1%.
With `Cc1ccc(C(=O)Nc2cc(C(=O)O)sc2Oc2ccc(OC(F)(F)F)cc2)cc1` [Compound 3-10], under setting [1], the inhibition at 0.1 µM came to 32.7%.
In the case of `CC(=O)c1ccc(Oc2sc(C(=O)O)cc2NC(=O)c2ccc(C)cc2)cc1` [Compound 3-11], the inhibition at 0.1 µM under setting [1] turned out to be 34.5%.
The same measure, in the same setting: then `Cc1ccc(C(=O)Nc2cc(C(=O)O)sc2Oc2ccc(C(=O)O)cc2)cc1` [Compound 3-12], with 44.1%; and `Cc1ccc(C(=O)Nc2cc(C(=O)O)sc2Oc2ccc(C#N)cc2)cc1` [Compound 3-13], with 46.2%; and `Cc1ccc(C(=O)Nc2cc(C(=O)O)sc2Oc2ccc(S(C)(=O)=O)cc2)cc1` [Compound 3-14], with 62.8%.
Consider `Cc1ccc(Oc2sc(C(=O)O)cc2NC(=O)c2ccc(C)cc2)cc1` [Compound 3-15], for which the inhibition at 0.1 µM under setting [1] worked out at 88.4%.
In the case of `Cc1ccc(C(=O)Nc2cc(C(=O)O)sc2Oc2cccc(C)c2)cc1` [Compound 3-16], the inhibition at 0.1 µM under setting [1] was found to be 55.8%.
With `Cc1ccc(C(=O)Nc2cc(C(=O)O)sc2Oc2ccccc2C)cc1` [Compound 3-17], the inhibition at 0.1 µM under setting [1] was determined as 45.8%.
Turning to `COc1ccc(Oc2sc(C(=O)O)cc2NC(=O)c2ccc(C)cc2)cc1` [Compound 3-18], the inhibition at 0.1 µM under setting [1] worked out at 69.8%.
On to `CCc1ccc(Oc2sc(C(=O)O)cc2NC(=O)c2ccc(C)cc2)cc1` [Compound 3-19], for which the inhibition at 0.1 µM under setting [1] came to 67.4%.
For `CCCc1ccc(Oc2sc(C(=O)O)cc2NC(=O)c2ccc(C)cc2)cc1` [Compound 3-20], the inhibition at 0.1 µM under setting [1] came out at 66.3%.
Same read-out and setting: then `Cc1ccc(C(=O)Nc2cc(C(=O)O)sc2Oc2ccc(C(C)C)cc2)cc1` [Compound 3-21], with 54.3%.
In the case of `Cc1ccc(C(=O)Nc2cc(C(=O)O)sc2Oc2ccc(C(C)(C)C)cc2)cc1` [Compound 3-22], the inhibition at 0.1 µM under setting [1] worked out at 34.6%.
Same read-out and setting: then `CC(=O)Nc1ccc(Oc2sc(C(=O)O)cc2NC(=O)c2ccc(C)cc2)cc1` [Compound 3-23], with 81.1%; and `Cc1ccc(C(=O)Nc2cc(C(=O)O)sc2Oc2ccc(C(=O)NCC3CS(=O)(=O)C3)cc2)cc1` [Compound 3-24], with 75.6%.
Turning to `Cc1ccc(C(=O)Nc2cc(C(=O)O)sc2Oc2ccc(C(=O)NCCC3CCOCC3)cc2)cc1` [Compound 3-25], under setting [1], the inhibition at 0.1 µM is 49.5%.
In the case of `Cc1ccc(C(=O)Nc2cc(C(=O)O)sc2Oc2cccnc2)cc1` [Compound 6-1], under setting [1], the inhibition at 0.1 µM was found to be 62%.
Still for that read-out and setting: then `Cc1ccc(C(=O)Nc2cc(C(=O)O)sc2Oc2ccc(F)nc2)cc1` [Compound 6-2], with 88.4%; and `Cc1ccc(C(=O)Nc2cc(C(=O)O)sc2Oc2ccccn2)cc1` [Compound 6-3], with 74.9%.
In the case of `Cc1ccc(C(=O)Nc2cc(C(=O)O)sc2Oc2ccc(C)cn2)cc1` [Compound 6-4], the inhibition at 0.1 µM (HEK293, read-out: Inhibition @ 100 nM) stood at 81.3%.
Turning to `Cc1ccc(C(=O)Nc2cc(C(=O)O)sc2Oc2ccc(F)cn2)cc1` [Compound 6-5], the inhibition at 0.1 µM under setting [1] was determined as 75.5%.
The same measure, in the same setting: then `Cc1ccc(C(=O)Nc2cc(C(=O)O)sc2Oc2ccncc2)cc1` [Compound 6-6], with 43.5%.
With `Cc1ccc(C(=O)Nc2cc(C(=O)O)sc2Oc2ccsn2)cc1` [Compound 6-7], the inhibition at 0.1 µM under setting [1] came out at 60.3%.
With `Cc1ccc(Nc2sc(C(=O)O)cc2NC(=O)c2ccc(C)cc2)cc1` [Compound 8, 4-(4-methylbenzamido)-5-(p-tolylamino)thiophene-2-carboxylic acid], under setting [1], the inhibition at 0.1 µM came to 75.6%.
On to `Cc1ccc(C(=O)Nc2cc(C(=O)O)sc2Nc2ccccc2)cc1` [Compound 9-1], for which the inhibition at 0.1 µM under setting [1] stood at 82.3%.
Same read-out and setting: then `Cc1ccc(C(=O)Nc2cc(C(=O)O)sc2Nc2ccc(F)cc2)cc1` [Compound 9-2], with 55.7%; and `CCc1ccc(Nc2sc(C(=O)O)cc2NC(=O)c2ccc(C)cc2)cc1` [Compound 9-3], with 71.5%.
As to `Cc1ccc(C(=O)Nc2cc(C(=O)O)sc2Nc2ccc(C(C)C)cc2)cc1` [Compound 9-4], the inhibition at 0.1 µM under setting [1] came out at 59.8%.
Take `Cc1ccc(Sc2sc(C(=O)O)cc2NC(=O)c2ccc(C)cc2)cc1` [Compound 11, 4-(4-methylbenzamido)-5-(p-tolylthio)thiophene-2-carboxylic acid]: the inhibition at 0.1 µM under setting [1] was 75.6%.
In the case of `Cc1ccc(C(=O)Nc2cc(C(=O)O)sc2Sc2ccccc2)cc1` [Compound 12-1], the inhibition at 0.1 µM under setting [1] stood at 57.5%.
`Cc1ccc(C(=O)Nc2cc(C(=O)O)sc2Sc2ccc(F)cc2)cc1` [Compound 12-2]: the inhibition at 0.1 µM under setting [1] stood at 61.4%.
Turning to `CCc1ccc(Sc2sc(C(=O)O)cc2NC(=O)c2ccc(C)cc2)cc1` [Compound 12-3], under setting [1], the inhibition at 0.1 µM turned out to be 67.5%.
Turning to `Cc1ccc(C(=O)Nc2cc(C(=O)O)sc2Sc2ccc(C(F)(F)F)cc2)cc1` [Compound 12-4], the inhibition at 0.1 µM under setting [1] came out at 82.5%.
For `Cc1ccc(Oc2sc(C(=O)O)cc2NC(=O)c2ccccc2)cn1` [Compound 14, 5-((6-methylpyridin-3-yl)oxy)-4-(benzamido)thiophene-2-carboxylic acid], the inhibition at 0.1 µM under setting [1] worked out at 86.9%.
With `Cc1ccc(Oc2sc(C(=O)O)cc2NC(=O)c2ccc(F)cc2)cn1` [Compound 15-1], the inhibition at 0.1 µM under setting [1] is 75.7%.
For the compound `Cc1ccc(Oc2sc(C(=O)O)cc2NC(=O)c2ccc(Cl)cc2)cn1` [Compound 15-2], the inhibition at 0.1 µM under setting [1] worked out at 75.4%.
On the same count and under the same terms, then `CCc1ccc(C(=O)Nc2cc(C(=O)O)sc2Oc2ccc(C)nc2)cc1` [Compound 15-3], with 46.4%; and `CCCc1ccc(C(=O)Nc2cc(C(=O)O)sc2Oc2ccc(C)nc2)cc1` [Compound 15-4], with 85.6%; and `Cc1ccc(Oc2sc(C(=O)O)cc2NC(=O)c2ccc(C(C)C)cc2)cn1` [Compound 15-5], with 78.7%.
Take `Cc1ccc(Oc2sc(C(=O)O)cc2NC(=O)c2ccc(C(C)(C)C)cc2)cn1` [Compound 15-6]: the inhibition at 0.1 µM under setting [1] stood at 86.1%.
For the compound `C#Cc1ccc(C(=O)Nc2cc(C(=O)O)sc2Oc2ccc(C)nc2)cc1` [Compound 15-7], the inhibition at 0.1 µM under setting [1] worked out at 94.6%.
For the compound `Cc1ccc(Oc2sc(C(=O)O)cc2NC(=O)c2ccc(C#N)cc2)cn1` [Compound 15-8], the inhibition at 0.1 µM under setting [1] is 76.4%.
With `Cc1ccc(Oc2sc(C(=O)O)cc2NC(=O)c2ccc(C(F)(F)F)cc2)cn1` [Compound 15-9], under setting [1], the inhibition at 0.1 µM was 82.1%.
In the case of `COc1ccc(C(=O)Nc2cc(C(=O)O)sc2Oc2ccc(C)nc2)cc1` [Compound 15-10], under setting [1], the inhibition at 0.1 µM is 91.3%.
For the compound `Cc1ccc(Oc2sc(C(=O)O)cc2NC(=O)c2ccc(C(=O)O)cc2)cn1` [Compound 15-11], the inhibition at 0.1 µM under setting [1] amounted to 79.3%.
On the same count and under the same terms, with `Cc1ccc(Oc2sc(C(=O)O)cc2NC(=O)c2ccc(C)nc2)cn1` [Compound 17, 4-(6-methylnicotinamido)-5-((6-methylpyridin-3-yl)oxy)thiophene-2-carboxylic acid] the figure was 65.1%; with `Cc1ccc(C(=O)Nc2cc(C(=O)O)sc2Oc2ccc(C)nc2)nc1` [Compound 18-1], 45.1%.
On the same count and under the same terms, with `Cc1ccc(Oc2sc(C(=O)O)cc2NC(=O)c2cnc(C)cn2)cn1` [Compound 18-2] the figure was 48.2%; with `Cc1ccc(Oc2sc(C(=O)O)cc2NC(=O)c2cnc(C)nc2)cn1` [Compound 18-3], 56.2%; with `Cc1ccc(Oc2sc(C(=O)O)cc2NC(=O)c2ccc(N(C)C)cc2)cn1` [Compound 18-4], 46.8%.

The values above are taken from US20260258010A1, “THIOPHENE-2-CARBOXYLIC ACID DERIVATIVE, AND PREPARATION METHOD THEREFOR AND MEDICAL USE THEREOF” (CHINA PHARMACEUTICAL UNIVERSITY, priority 2023, published 2026).
